US12239637B2, “Compositions and methods for treating neurological disorders” (priority 2018, dated 2025)
Marks after values point to notes of the source that are not given here.

Experiments:
Assay type in all cases: in vivo, rhesus monkeys
[1] = system: CD4+ and CD8+ T cells in the nigra; experiment: Infiltration of CD4+ and CD8+ T cells into the nigra of hemiparkinsonian monkeys (immunostaining); conditions: oral 1 mg/kg body wt/d for 30 d from 7 d after MPTP; near blood vessel and in deep parenchyma of ventral midbrain
Description: (§1) FIG. 2 (A-E). […] Naïve female rhesus monkeys received a right intracarotid injection of MPTP. […] MPTP group of monkeys also received normal banana as control. After 30 d of treatment, ventral midbrain sections were DAB-stained for CD4 (A, vessel; B, parenchyma). C) Sections were double-labeled for CD4 and TH. CD4-positive cells were counted in two nigral sections (D, within 100 μm around vessel; E, parenchyma within 100 to 200 μm around vessel) of each of four monkeys (n=4) per group. ap<0.001 vs. control; bp<0.01 vs. MPTP. Control represents the intact side of MPTP-intoxicated monkeys.
as §1, with “3 (A-D).” for “2 (A-E).”, “CD8” for “CD4”, “CD8-positive” for “C) Sections were double-labeled for CD4 and TH. CD4-positive”, “(C,” for “(D,”, “D,” for “E,”, “monkeys. […]” for “monkeys.”
(§2) At the end point, monkeys were anesthetized with pentobarbital (25 mg/kg intravenously) and killed via perfusion with 0.9% saline. […] These punches were processed for HPLC analysis (for quantification of neurotransmitters). […]

[2] = system: iNOS, Iba1-positive microglia, GFAP-positive astrocytes in the SNpc; experiment: Glial inflammation in the SNpc of hemiparkinsonian monkeys (Iba1, GFAP, iNOS immunofluorescence); conditions: oral 1 mg/kg body wt/d for 30 d
Description: FIG. 4 (A-E). […] After 30 d of treatment, nigral sections were double-labeled for Iba1 and iNOS (A) and GFAP and iNOS (B). Cells positive for Iba1 (C), GFAP (D) and iNOS (E) were counted using the olympus microsuite V software in two nigral sections (two images per slide) of each of four monkeys (n=4) per group. ap<0.001 vs. control; bp<0.001 vs MPTP; ns, not significant vs MPTP.
(§3) Female rhesus monkeys (6-8 years old; 5-7 kg) were used in this study. All animals were singly housed with a 12-h light/dark cycle. Purine monkey chow and water were available ad libitum. Diets were supplemented with fruit during the testing sessions. The study was performed in accordance with federal guidelines of proper animal care and with the approval of the IACUC. Monkeys were intoxicated with MPTP according to protocol described previously (12-16). Briefly, animals were tranquilized with ketamine (10 mg/kg, i.m.) and then maintained on an anesthetic plane with isoflurane (1-2%). The animals were put in the supine position. For each injection, a right-sided incision was made along the medial edge of the sternocleidomastoid muscle. […]
For immunofluorescence staining, anti-Iba-1 antibody (1:500), anti-iNOS antibody (1:1000), and anti-GFAP antibody (1:1000) were used. The samples were mounted and observed under an Olympus IX81 fluorescence microscope as described before (17-19).

α-syn = experiment: α-Synucleinopathy in the nigra of hemiparkinsonian monkeys (TH and α-syn double-labeling); conditions: oral 1 mg/kg body wt/d for 30 d
Description: FIG. 5 (A-C). […] Naïve female rhesus monkeys received a right intracarotid injection of MPTP. […] MPTP group of monkeys also received normal banana as control. After 30 d of treatment, nigral (A) sections were double-labeled for TH and α-syn. Total area (B) and integrated density (C) of α-syn bodies were quantified in two sections (two images per section) of each of four monkeys per group. ap<0.001 vs control (MPTP-intact); bp<0.001 vs MPTP-lesion.
as §3, with “position.” for “position. For each injection, a right-sided incision was made along the medial edge of the sternocleidomastoid muscle.”
as §2

[3] = system: TH-positive dopaminergic neurons and fibers; experiment: TH immunostaining: dopaminergic neurons in the SNpc (stereology) and striatal TH fibers (optical density); conditions: oral 1 mg/kg body wt/d for 30 d, lesion side
Method: FIG. 6 (A-C). Oral maraviroc treatment protects dopaminergic neurons in the SNpc of hemiparkinsonian monkeys. Naïve female rhesus monkeys received a right intracarotid injection of MPTP. […] MPTP group of monkeys also received normal banana as control. A) After 30 d of treatment, nigral sections were immunostained for TH. B) A magnified image of TH-stained SNpc is shown. […] All counting were performed by a single investigator blinded to the experimental conditions. ap<0.001 vs MPTP-intact; bp<0.01 vs MPTP-lesion.
FIG. 7 (A-B). Oral maraviroc treatment protects THir fibers in the striatum of hemiparkinsonian monkeys. Naïve female rhesus monkeys received a right intracarotid injection of MPTP. […] MPTP group of monkeys also received normal banana as control. A) After 30 d of treatment, striatal sections were immunostained for TH. B) Optical density of TH fibers in caudate and putamen was calculated by digital image analysis. Six different striatal sections of each monkey were analyzed. ap<0.001 vs MPTP-intact; bp<0.01 vs MPTP-Caudate-lesion; cp<0.01 vs MPTP-Putamen-lesion.
Female rhesus monkeys (6-8 years old; 5-7 kg) were used in this study. […]
as §2

[4] = system: striatal dopamine, DOPAC and HVA; experiment: HPLC analysis of striatal neurotransmitters in hemiparkinsonian monkeys; conditions: oral 1 mg/kg body wt/d for 30 d
Method: FIG. 8 (A-E). Maraviroc protects striatal dopamine in hemiparkinsonian monkeys. Naïve female rhesus monkeys received a right intracarotid injection of MPTP. […] MPTP group of monkeys also received normal banana as control. After 30 d of treatment, dopamine levels were measured in dorsomedial caudate (A), ventromedial caudate (B), dorsal putamen (C), ventral putamen (D), and nucleus accumbens (E). HPLC quantification of dopamine was performed by a single investigator blinded to the experimental conditions. Data are means±SEM of four monkeys per group. ap<0.001 vs MPTP-intact; bp<0.001 vs MPTP-lesion.
FIG. 9 (A-E). Maraviroc protects striatal DOPAC and HVA in hemiparkinsonian monkeys. Naïve female rhesus monkeys received a right intracarotid injection of MPTP. […] After 30 d of treatment, levels of DOPAC and HVA were measured in dorsomedial caudate (A), ventromedial caudate (B), dorsal putamen (C), ventral putamen (D), and nucleus accumbens (E). HPLC quantification of DOPAC and HVA was performed by a single investigator blinded to the experimental conditions. […]
as §2
Samples were analyzed for neurotransmitters by an investigator blind to the treatment groups. […]

hemiparkinsonian monkeys = experiment: Behavioral analysis: parkinsonian rating scale (PD scale) and hand reaching task in hemiparkinsonian monkeys
Method: Female rhesus monkeys (6-8 years old; 5-7 kg) were used in this study. All animals were singly housed with a 12-h light/dark cycle. Purine monkey chow and water were available ad libitum. Diets were supplemented with fruit during the testing sessions. The study was performed in accordance with federal guidelines of proper animal care and with the approval of the IACUC. Monkeys were intoxicated with MPTP according to protocol described previously (12-16). Briefly, animals were tranquilized with ketamine (10 mg/kg, i.m.) and then maintained on an anesthetic plane with isoflurane (1-2%). The animals were put in the supine position. For each injection, a right-sided incision was made along the medial edge of the sternocleidomastoid muscle. The carotid sheath was opened and the common carotid artery, internal jugular vein, and vagus nerves were identified. The common carotid was exposed below the carotid bifurcation. The external carotid artery was then ligated. A 27 gauge butterfly needle was inserted into the common carotid artery in a direction retrograde to blood flow; for each injection, 20 ml of saline containing 3 mg of MPTP-HCl (Sigma) was infused at a rate of 1.33 ml/min (15 min). After the infusion was completed, 3 ml of saline was delivered, and then the incision was closed.
Monkeys displaying hemiparkinsonian symptoms 7 d after the first intracarotid injection were included in the study. […] The control group of hemiparkinsonian monkeys (n=4) received only banana as vehicle.
The animals were trained to a consistent level of performance before intracarotid injection of MPTP. Monkeys were rated thrice a week by an investigator blind to the treatment groups using a parkinsonian rating scale (PD scale) utilized to quantify the clinical status of the monkeys (13-16). The scale included ratings of 10 parkinsonian features (tremor, posture, locomotion, hypokinesia, bradykinesia, balance, fine and gross motor skills, startle response, and freezing). Each test consisted of twelve total trials alternating between arms, six per side. Delaying feeding time until after the task was completed ensured animals' compliance with the test. Data collected included the time taken for the animal to move its hand into the chamber where the fruit was located (reaction time), the time taken to pick up the fruit while the hand was in the chamber (reception time) and the total time taken to move the hand into the chamber, retrieve the fruit and bring the hand back out of the panel and into the cage (total time).
All values are expressed as means±SEM. Differences among means were analyzed by one-way ANOVA or Kruskal-Wallis test (comparison among all groups) and post-hoc pair-wise comparison. In other cases, two sample t tests were also used to compare control vs MPTP and MPTP vs MPTP+maraviroc. For behavioral analysis, one way repeated measure ANOVA models were used. Pair-wise comparisons were conducted with Bonferroni adjustment.

[5] = PD scale score after treatment, 1 mg/kg body wt/d orally, mean ± SEM, four monkeys

## maraviroc
[1]
  infiltration of CD4+ T cells into the nigra: significantly attenuated
  infiltration of CD8+ T cells into the nigra: significantly attenuated
[2]
  expression of iNOS protein in the SNpc: reduced
[2]; GFAP- and Iba1-positive cells
  number of astrocytes and microglia in the SNpc: did not significantly reduce
α-syn
  α-syn pathology in the SNpc: almost missing
[3]; caudate and putamen
  striatal TH fibers: significantly restored
[3]
  SNpc TH-positive neurons: significantly restored
[4]
  levels of DOPAC and HVA in different parts of striatum: restored
[4]; caudate, putamen, nucleus accumbens
  DA in different parts of striatum: pronounced preservation
Hemiparkinsonian monkeys; [5]
  Balance (0-3): 0.57 ± 0.04^a
  Brady kinesia (0-5): 0.85 ± 0.28^a
  Defense Reaction (0-2): 0.24 ± 0.07^a
  Freezing (0-2): 0.39 ± 0.03^a
  Gait (0-5): 0.25 ± 0.03^a
  General (Gross) motor skills (0-3), L Hand: 0.89 ± 0.05
  General (Gross) motor skills (0-3), R Hand: 0.01 ± 0.00
  Posture (0-3): 0.39 ± 0.04^a
  Tremor (0-3), L Hand: 0.42 ± 0.03^a
  Tremor (0-3), R Hand: 0.00 ± 0.00
Hemiparkinsonian monkeys; PD scale total score after treatment, 1 mg/kg body wt/d orally, mean ± SEM, four monkeys
  Total (Sum mean): 4.01 ± 0.40^a
Hemiparkinsonian monkeys; oral 1 mg/kg body wt/d for 30 d
  functional ability on clinical rating scale and operant motor test: significantly improved
Hemiparkinsonian monkeys; oral maraviroc
  motor deficits in a hand-reach task: reversed
